Results reported in patent US9944603B2, “Compounds and methods for the treatment of cystic fibrosis” (Flatley Discovery Lab, LLC, priority 2013, dated 2018).

Target: T1, human F508del CFTR (Homo sapiens, UniProt P13569, DEL508-508)
T1 construct: expressed in transfected cells
Assay: CFTR-YFP Assay, CFTR Corrector Protocol (YFP flux assay)
Format: cell-based
Details: for Emax: normalized to the positive control, read-out: EMAX (% Efficacy, EMAX normalized to the positive control)

T1 sequence (P13569 with tags, fused parts or gaps DEL508-508): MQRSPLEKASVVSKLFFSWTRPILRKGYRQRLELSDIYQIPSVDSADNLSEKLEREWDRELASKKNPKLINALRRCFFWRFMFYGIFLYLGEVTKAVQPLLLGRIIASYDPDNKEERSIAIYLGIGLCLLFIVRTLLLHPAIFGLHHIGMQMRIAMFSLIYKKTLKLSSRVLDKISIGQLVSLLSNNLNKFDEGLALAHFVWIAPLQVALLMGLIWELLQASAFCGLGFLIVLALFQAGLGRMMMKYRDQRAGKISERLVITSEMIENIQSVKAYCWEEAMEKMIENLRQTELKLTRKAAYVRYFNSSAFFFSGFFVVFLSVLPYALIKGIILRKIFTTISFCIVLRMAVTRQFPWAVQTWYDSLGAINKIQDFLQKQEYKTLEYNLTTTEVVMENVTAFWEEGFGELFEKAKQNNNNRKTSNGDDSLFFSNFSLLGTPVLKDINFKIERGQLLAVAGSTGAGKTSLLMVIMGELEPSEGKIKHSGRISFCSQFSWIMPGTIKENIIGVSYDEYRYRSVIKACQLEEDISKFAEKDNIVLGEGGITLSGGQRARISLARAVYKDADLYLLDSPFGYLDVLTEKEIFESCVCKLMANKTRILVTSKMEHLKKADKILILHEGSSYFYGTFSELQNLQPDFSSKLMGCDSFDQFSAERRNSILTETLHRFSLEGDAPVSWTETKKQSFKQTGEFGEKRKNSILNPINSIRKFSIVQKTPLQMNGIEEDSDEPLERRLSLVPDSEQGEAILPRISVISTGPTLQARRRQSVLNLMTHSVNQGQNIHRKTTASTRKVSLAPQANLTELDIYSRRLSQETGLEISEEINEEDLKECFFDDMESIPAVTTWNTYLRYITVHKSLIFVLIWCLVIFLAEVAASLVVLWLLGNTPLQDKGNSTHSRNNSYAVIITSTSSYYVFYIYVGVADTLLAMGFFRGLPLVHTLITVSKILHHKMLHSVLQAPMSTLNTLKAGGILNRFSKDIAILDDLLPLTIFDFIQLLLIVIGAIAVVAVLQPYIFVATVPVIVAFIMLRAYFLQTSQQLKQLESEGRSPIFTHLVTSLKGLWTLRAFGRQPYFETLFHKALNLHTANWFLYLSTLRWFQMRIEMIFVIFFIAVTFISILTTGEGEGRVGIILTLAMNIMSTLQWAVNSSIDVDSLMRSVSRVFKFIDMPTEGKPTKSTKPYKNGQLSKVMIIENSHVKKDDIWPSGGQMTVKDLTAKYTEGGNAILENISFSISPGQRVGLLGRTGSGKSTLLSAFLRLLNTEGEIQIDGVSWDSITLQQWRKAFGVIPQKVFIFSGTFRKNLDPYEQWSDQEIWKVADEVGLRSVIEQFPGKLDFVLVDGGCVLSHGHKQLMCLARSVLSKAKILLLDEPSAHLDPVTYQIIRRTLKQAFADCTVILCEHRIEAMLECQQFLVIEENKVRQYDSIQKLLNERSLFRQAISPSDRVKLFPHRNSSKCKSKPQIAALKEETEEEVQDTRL

Compound | EC50 [µM] | Emax [%]
CCc1ccc(S(=O)(=O)N2CCC(N(C(=O)c3ccccc3Cl)c3ccc4c(c3)OC(F)(F)O4)CC2)cc1 [Example 209] | < 10 | 30 to 80
CCc1ccc(S(=O)(=O)N2CCC(N(C(=O)c3ccccc3Cl)c3ccccc3)CC2)cc1 [Example 210] | 10 to 20 | 30 to 80
CCc1ccc(S(=O)(=O)N2CCC(N(C(=S)c3ccccc3Cl)c3ccc(OC)cc3)CC2)cc1 [Example 211] | 10 to 20 | 30 to 80
CCc1ccc(S(=O)(=O)N2CCC(N(C(=S)c3ccccc3Cl)c3ccc4c(c3)OC(F)(F)O4)CC2)cc1 [Example 212] | 10 to 20 | 30 to 80
CCc1ccc(S(=O)(=O)N2CCC(N(C(=S)c3ccccc3Cl)c3ccccc3)CC2)cc1 [Example 213] | 10 to 20 | 10 to 30
CCc1ccc(S(=O)(=O)N2CCC(N(C(=O)c3ccccc3Cl)c3ccc(Br)cc3)CC2)cc1 [Example 214] | < 10 | 10 to 30
CCc1ccc(S(=O)(=O)N2CCC(N(C(=O)c3ccccc3Cl)c3ccc(I)cc3)CC2)cc1 [Example 216] | < 10 | 10 to 30
CCc1ccc(S(=O)(=O)N2CCC(N(C(=O)c3ccccc3Cl)c3cccc(Cl)c3)CC2)cc1 [Example 217] | < 10 | 10 to 30
CCc1ccc(S(=O)(=O)N2CCC(N(c3ccc(OC)cn3)S(=O)(=O)c3ccccc3Cl)CC2)cc1 [Example 218] | < 10 | 10 to 30
COc1ccc(N(C2CCN(S(=O)(=O)c3ccc4c(c3)OC(F)(F)O4)CC2)S(=O)(=O)c2ccccc2Cl)nc1 [Example 219] | < 10 | 10 to 30
Cc1cccc(N(C2CCN(S(=O)(=O)c3ccc4nc(C)oc4c3)CC2)S(=O)(=O)c2ccccc2Cl)n1 [Example 220, 2-Chloro-N-(1-((2-methylbenzo[d]oxazol-6-yl)sulfonyl)piperidin-4-yl)-N-(6-methylpyridin-2-yl)benzenesulfonamide] | < 10 | 30 to 80
CCc1ccc(S(=O)(=O)N2CCC(N(c3cccc(OC)n3)S(=O)(=O)c3ccccc3Cl)CC2)cc1 [Example 222, 2-Chloro-N-(1-((4-ethylphenyl)sulfonyl)piperidin-4-yl)-N-(6-methoxypyridin-2-yl)benzenesulfonamide] | < 10 | 10 to 30
Cc1ccc(N(C2CCN(S(=O)(=O)c3ccc4nc(C)oc4c3)CC2)S(=O)(=O)c2ccccc2Cl)nc1 [Example 223] | 10 to 20 | 10 to 30
CCc1ccc(S(=O)(=O)N2CCC(N(c3ccccn3)S(=O)(=O)c3ccccc3C)CC2)cc1 [Example 225] | < 10 | 10 to 30
CCc1ccc(S(=O)(=O)N2CCC(N(c3ccccn3)S(=O)(=O)c3cccc(C)c3)CC2)cc1 [Example 226] | < 10 | 10 to 30
CCc1ccc(S(=O)(=O)N2CCC(N(c3ccc(C)cn3)S(=O)(=O)c3ccccc3Cl)CC2)cc1 [Example 227] | < 10 | 10 to 30
COc1ccc(N(C2CCN(S(=O)(=O)c3ccc4nc(C)oc4c3)CC2)S(=O)(=O)c2ccccc2Cl)nc1 [Example 228] | 10 to 20 | 10 to 30
CCc1ccc(S(=O)(=O)N2CCC(N(c3ccccn3)S(=O)(=O)c3ccc(C)cc3)CC2)cc1 [Example 229] | < 10 | 10 to 30
CCc1ccc(S(=O)(=O)N2CCC(N(c3ccc(Cl)cn3)S(=O)(=O)c3ccccc3Cl)CC2)cc1 [Example 230] | < 10 | 30 to 80
CCc1ccc(S(=O)(=O)N2CCC(N(c3nccs3)S(=O)(=O)c3ccccc3Cl)CC2)cc1 [Example 231] | < 10 | 30 to 80
CCc1ccc(S(=O)(=O)N2CCC(N(c3cccc(Cl)n3)S(=O)(=O)c3ccccc3Cl)CC2)cc1 [Example 232] | < 10 | 10 to 30
CCc1ccc(S(=O)(=O)N2CCC(N(c3cc(Cl)ccn3)S(=O)(=O)c3ccccc3Cl)CC2)cc1 [Example 233] | < 10 | 30 to 80
